Experiments:
[1] = target: glucose oxidase (GOD, EC 1.1.3.4.) (Aspergillus niger, UniProt P13006); experiment: GOD biosensor: oxygen decrease during glucose oxidation in hydrolysed milk with added antibiotic; format: biochemical; details: benzylpenicillin concentration 1000 ppb in milk, glucose and galactose 1.4 mM, 38° C.
[2] = target: galactose oxidase (GAO, EC 1.1.3.9) (Gibberella zeae, UniProt P0CS93); format: biochemical; details: GAO biosensor, benzylpenicillin concentration 1000 ppb in milk, glucose and galactose 1.4 mM, 38° C.
Chain of galactose oxidase (GAO, EC 1.1.3.9) (P0CS93 42-680 limits assumed): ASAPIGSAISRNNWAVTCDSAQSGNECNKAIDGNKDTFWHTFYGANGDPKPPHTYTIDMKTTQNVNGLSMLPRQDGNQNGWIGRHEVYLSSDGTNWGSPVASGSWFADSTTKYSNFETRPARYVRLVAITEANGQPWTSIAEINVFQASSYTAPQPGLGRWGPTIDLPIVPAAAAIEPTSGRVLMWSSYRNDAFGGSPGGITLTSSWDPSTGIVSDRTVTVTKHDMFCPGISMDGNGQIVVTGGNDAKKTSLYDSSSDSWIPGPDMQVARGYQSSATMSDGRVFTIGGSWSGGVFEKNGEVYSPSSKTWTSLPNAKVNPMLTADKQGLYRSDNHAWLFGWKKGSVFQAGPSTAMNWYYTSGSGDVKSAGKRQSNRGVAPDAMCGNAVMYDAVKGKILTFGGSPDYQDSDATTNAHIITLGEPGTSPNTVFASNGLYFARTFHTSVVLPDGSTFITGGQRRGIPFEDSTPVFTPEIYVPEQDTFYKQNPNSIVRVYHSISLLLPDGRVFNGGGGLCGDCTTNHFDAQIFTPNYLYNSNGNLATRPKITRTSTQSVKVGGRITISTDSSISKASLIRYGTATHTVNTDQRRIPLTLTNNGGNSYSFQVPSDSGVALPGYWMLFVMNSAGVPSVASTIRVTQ

Chain of glucose oxidase (GOD, EC 1.1.3.4.) (P13006 17-605, species assumed): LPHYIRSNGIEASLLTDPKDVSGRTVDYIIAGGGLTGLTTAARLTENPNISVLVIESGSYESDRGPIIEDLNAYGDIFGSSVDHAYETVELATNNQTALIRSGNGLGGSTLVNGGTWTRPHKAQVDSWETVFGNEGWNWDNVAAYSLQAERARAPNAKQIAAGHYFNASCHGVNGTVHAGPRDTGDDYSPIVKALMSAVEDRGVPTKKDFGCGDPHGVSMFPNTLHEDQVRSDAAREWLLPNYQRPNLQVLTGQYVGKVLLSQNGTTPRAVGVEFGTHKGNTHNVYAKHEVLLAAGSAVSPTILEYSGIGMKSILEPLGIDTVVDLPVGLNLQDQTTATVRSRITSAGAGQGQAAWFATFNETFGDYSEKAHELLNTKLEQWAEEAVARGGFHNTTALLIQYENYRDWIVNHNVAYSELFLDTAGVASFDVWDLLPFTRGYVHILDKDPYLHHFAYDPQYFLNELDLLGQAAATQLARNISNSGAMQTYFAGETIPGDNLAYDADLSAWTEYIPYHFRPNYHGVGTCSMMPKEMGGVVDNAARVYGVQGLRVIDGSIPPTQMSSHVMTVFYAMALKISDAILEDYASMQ

In the case of `CC1(C)S[C@@H]2[C@H](NC(=O)Cc3ccccc3)C(=O)N2[C@H]1C(=O)O` [benzylpenicillin], the “steady state parameter A” value ([1]; antibiotics-free milk A=0.159) is reported as 0.141, the “kinetic parameter B” value ([1]; antibiotics-free milk B=222.2) is reported as 146.0 s⁻¹ and the “steady state parameter A” value ([2]; antibiotics-free milk A=0.640) is reported as 0.435. For the same molecule, the “kinetic parameter B” value ([2]; antibiotics-free milk B=53.0) was 97.8 s⁻¹.

From patent US20130011528A1 (priority 2010, published 2013)
